The nature of series [1]: in vivo. Conditions: dog, po, 2 mg/kg.
Series [2] can be described thus: in vivo. Conditions: rhesus monkey, iv, 1 mg/kg.
Series [3] in a line: in vivo. The note with it: rat, iv, 1 mg/kg.
A short description of series [4]: in vivo. Conditions: dog, plasma.
Series [5] in a line: in vivo. Conditions: rat, plasma.
Series [6] can be described thus: in vivo. The note with it: rhesus monkey, po, 2 mg/kg.
Series [7] can be described thus: in vivo. Conditions: dog.
Series [8] can be described thus: in vivo. The note with it: dog, iv, 0.25 mg/kg.
Series [9] in a line: in vivo. The note with it: rat.
Series [10] is described as follows: in vivo. The note with it: rhesus monkey, plasma.
Series [11] in a line: in vivo. Conditions: rhesus monkey.
Series [12] is described as follows: in vivo. Conditions: rat, po, 2 mg/kg.

Broadly, the bioavailability is dose-corrected exposure relative to a reference, in per cent. By clearance is commonly meant a measure of how efficiently the substance is removed, as volume per time. In general, AUC refers to concentration integrated over time. As a reminder, the half-life is how long it takes for the measured level to halve.

Consider `Cc1nnc(-c2ccc(F)c(-c3c(=O)ccn4nc(Oc5ccc(F)cc5F)ccc34)c2)o1`, for which the bioavailability in the series “in vivo [1]” came to 15%; in “in vivo [6]” it was 31%; in “in vivo [12]” it was 93%. Also, the clearance worked out at 2 mL/min/kg in “in vivo [2]”, 2 mL/min/kg in the series “in vivo [3]” and 2.8 mL/min/kg in “in vivo [8]”. In addition, the values for the AUC in the series “in vivo [4]”, in “in vivo [5]” and in the series “in vivo [10]” were 2.1 µM·h, 20 µM·h and 5.6 µM·h, respectively. In addition, the values for the half-life in “in vivo [7]”, in the series “in vivo [9]” and in “in vivo [11]” were 4.5 h, 4.4 h and 6.9 h, respectively.

The values above are taken from ChEMBL document CHEMBL2086361, “Synthesis and biological activity of pyridopyridazin-6-one p38α MAP kinase inhibitors. Part 2” (Bioorg Med Chem Lett, 2012).
